Data published in patent US5593984A, “Cephalosporin derivatives” (Yuhan Corporation, priority 1992, dated 1997).
Values after ≈ are worked out from the molar mass of the structure shown.

Legend:
Format in all cases: cell-based
P. vulgaris NCTC 8313 = assay: MIC by agar dilution, P. vulgaris NCTC 8313; conditions: Proteus vulgaris, NCTC8313, 17 h; P. vulgaris NCTC 8313; agar dilution, Mueller-Hinton agar; read-out: Minimal Inhibitory Concentration (MIC)
Procedure, shortened: (§1)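 Agar dilution in Mueller-Hinton agar with two-fold compound dilutions. Each strain is inoculated at 10^6 CFU per ml and incubated at 35°-37° C. for 17±1 hours. Ceftazidime and cefotaxime serve as controls.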

Staph. aureus C-57 = assay: MIC by agar dilution, Staph. aureus C-57; conditions: Staphylococcus aureus, C57, 17 h, Mueller-Hinton agar, read-out: Minimal Inhibitory Concentration (MIC)
Procedure, shortened: as §1

M. morganii DY-1 = assay: MIC by agar dilution, M. morganii DY-1; conditions: Morganella morganii, DY1, 17 h; M. morganii DY-1; agar dilution, Mueller-Hinton agar; read-out: Minimal Inhibitory Concentration (MIC)
Procedure, shortened: as §1

Staph. aureus Smith = assay: MIC by agar dilution, Staph. aureus Smith; conditions: Staphylococcus aureus, 17 h, Mueller-Hinton agar, read-out: Minimal Inhibitory Concentration (MIC)
Procedure, shortened: as §1

[1] = tested on: S. epidermidis ATCC 12228; assay: MIC by agar dilution, S. epidermidis ATCC 12228; conditions: Staphylococcus epidermidis, ATCC12228, 17 h; S. epidermidis ATCC 12228; agar dilution, Mueller-Hinton agar; read-out: Minimal Inhibitory Concentration (MIC)
Procedure, shortened: as §1

B. subtilis ATCC 6633 = assay: MIC by agar dilution, B. subtilis ATCC 6633; conditions: Bacillus subtilis, ATCC6633, 17 h; B. subtilis ATCC 6633; agar dilution, Mueller-Hinton agar; read-out: Minimal Inhibitory Concentration (MIC)
Procedure, shortened: as §1

E. coli DY-1 = assay: MIC by agar dilution, E. coli DY-1; conditions: Escherichia coli, DY1, 17 h; E. coli DY-1; agar dilution, Mueller-Hinton agar; read-out: Minimal Inhibitory Concentration (MIC)
Procedure, shortened: as §1

Ent. aerogenes IFO 12979 = assay: MIC by agar dilution, Ent. aerogenes IFO 12979; conditions: Klebsiella aerogenes, IFO12979, 17 h, Mueller-Hinton agar, read-out: Minimal Inhibitory Concentration (MIC)
Procedure, shortened: as §1

Ent. cloacae IFO 13535 = assay: MIC by agar dilution, Ent. cloacae IFO 13535; conditions: Enterobacter cloacae, IFO13535, 17 h; Ent. cloacae IFO 13535; agar dilution, Mueller-Hinton agar; read-out: Minimal Inhibitory Concentration (MIC)
Procedure, shortened: as §1

E. coli No. 29 = assay: MIC by agar dilution, E. coli No. 29; conditions: Escherichia coli, 17 h; E. coli No. 29; agar dilution, Mueller-Hinton agar; read-out: Minimal Inhibitory Concentration (MIC)
Procedure, shortened: as §1

Staph. aureus ATCC 6538P = assay: MIC by agar dilution, Staph. aureus ATCC 6538P; conditions: Staphylococcus aureus, ATCC6538P, 17 h; Staph. aureus ATCC 6538P; agar dilution, Mueller-Hinton agar; read-out: Minimal Inhibitory Concentration (MIC)
Procedure, shortened: as §1

Prov. stuartii IFO 12930 = assay: MIC by agar dilution, Prov. stuartii IFO 12930; conditions: Providencia stuartii, IFO12930, 17 h, Mueller-Hinton agar, read-out: Minimal Inhibitory Concentration (MIC)
Procedure, shortened: as §1

K. pneumoniae NCTC 9632 = assay: MIC by agar dilution, K. pneumoniae NCTC 9632; conditions: Klebsiella pneumoniae, NCTC9632, 17 h; K. pneumoniae NCTC 9632; agar dilution, Mueller-Hinton agar; read-out: Minimal Inhibitory Concentration (MIC)
Procedure, shortened: as §1

Staph. aureus C-5216 = assay: MIC by agar dilution, Staph. aureus C-5216; conditions: Staphylococcus aureus, C5216, 17 h, Mueller-Hinton agar, read-out: Minimal Inhibitory Concentration (MIC)
Procedure, shortened: as §1

[2] = tested on: Ps. aeruginosa NCTC 10490; assay: MIC by agar dilution, Ps. aeruginosa NCTC 10490; conditions: Pseudomonas aeruginosa, NCTC10490, 17 h, Mueller-Hinton agar, read-out: Minimal Inhibitory Concentration (MIC)
Procedure, shortened: as §1

E. coli NIHJ JC-2 = assay: MIC by agar dilution, E. coli NIHJ JC-2; conditions: Escherichia coli, NIHJJC2, 17 h; E. coli NIHJ JC-2; agar dilution, Mueller-Hinton agar; read-out: Minimal Inhibitory Concentration (MIC)
Procedure, shortened: as §1

[3] = tested on: Ps. aeruginosa ATCC 10145; assay: MIC by agar dilution, Ps. aeruginosa ATCC 10145; conditions: Pseudomonas aeruginosa, ATCC10145, 17 h, Mueller-Hinton agar, read-out: Minimal Inhibitory Concentration (MIC)
Procedure, shortened: as §1

Staph. aureus C-5113 = assay: MIC by agar dilution, Staph. aureus C-5113; conditions: Staphylococcus aureus, C5113, 17 h, Mueller-Hinton agar, read-out: Minimal Inhibitory Concentration (MIC)
Procedure, shortened: as §1

Ps. aeruginosa DY-2 = assay: MIC by agar dilution, Ps. aeruginosa DY-2; conditions: Pseudomonas aeruginosa, DY2, 17 h; Ps. aeruginosa DY-2; agar dilution, Mueller-Hinton agar; read-out: Minimal Inhibitory Concentration (MIC)
Procedure, shortened: as §1

[4] = tested on: Ser. marcescens IFO 12648; assay: MIC by agar dilution, Ser. marcescens IFO 12648; conditions: Serratia marcescens, IFO12648, 17 h; Ser. marcescens IFO 12648; agar dilution, Mueller-Hinton agar; read-out: Minimal Inhibitory Concentration (MIC)
Procedure, shortened: as §1

## CO/N=C(\C(=O)N[C@@H]1C(=O)N2C(C(=O)[O-])=C(C[n+]3ccn4c(CO)ccc4c3)CS[C@H]12)c1nsc(N)n1 [Ex. 50, 7-β-[(Z)-2-(5-amino-1,2,4-thiadiazol-3-yl)-2-methoxyiminoacetamido]-3-(6-hydroxymethylpyrrolo[1,2-a]-pyrazinium-2-yl)methyl-3-cephem-4-carboxylate]
P. vulgaris NCTC 8313
  MIC: 0.012 µg/mL (≈ 0.022 µM)
Staph. aureus C-57
  MIC: 12.5 µg/mL (≈ 23 µM)
M. morganii DY-1
  MIC: 0.012 µg/mL (≈ 0.022 µM)
Staph. aureus Smith
  MIC: 0.78 µg/mL (≈ 1.43 µM)
[1]
  MIC: 0.05 µg/mL (≈ 0.0918 µM)
B. subtilis ATCC 6633
  MIC: 0.1 µg/mL (≈ 0.184 µM)
E. coli DY-1
  MIC: ≤ 0.006 µg/mL
Ent. aerogenes IFO 12979
  MIC: ≤ 0.006 µg/mL
Ent. cloacae IFO 13535
  MIC: 0.05 µg/mL (≈ 0.0918 µM)
E. coli No. 29
  MIC: ≤ 0.006 µg/mL
Staph. aureus ATCC 6538P
  MIC: 0.39 µg/mL (≈ 0.716 µM)
Prov. stuartii IFO 12930
  MIC: ≤ 0.006 µg/mL
K. pneumoniae NCTC 9632
  MIC: 0.012 µg/mL (≈ 0.022 µM)
Staph. aureus C-5216
  MIC: 0.78 µg/mL (≈ 1.43 µM)
[2]
  MIC: 0.1 µg/mL (≈ 0.184 µM)
E. coli NIHJ JC-2
  MIC: ≤ 0.006 µg/mL
[3]
  MIC: 0.78 µg/mL (≈ 1.43 µM)
Staph. aureus C-5113
  MIC: 1.56 µg/mL (≈ 2.86 µM)
Ps. aeruginosa DY-2
  MIC: 1.56 µg/mL (≈ 2.86 µM)
[4]
  MIC: 0.012 µg/mL (≈ 0.022 µM)

## CO/N=C(\C(=O)N[C@@H]1C(=O)N2C(C(=O)[O-])=C(C[n+]3ccn4c(C(C)O)ccc4c3)CS[C@H]12)c1nsc(N)n1 (stereo partly drawn) [Ex. 51, 7-β-[(Z)-2-(5-amino-1,2,4-thiadiazol-3-yl)-2-methoxyiminoacetamido]-3-[6-(1-hydroxyethyl)pyrrolo[1,2-a]-pyrazinium-2-yl]methyl-3cephem-4-carboxylate]
P. vulgaris NCTC 8313
  MIC: 0.05 µg/mL (≈ 0.0895 µM)
Staph. aureus C-57
  MIC: 50 µg/mL (≈ 89.5 µM)
M. morganii DY-1
  MIC: 0.1 µg/mL (≈ 0.179 µM)
Staph. aureus Smith
  MIC: 1.56 µg/mL (≈ 2.79 µM)
[1]
  MIC: 0.1 µg/mL (≈ 0.179 µM)
B. subtilis ATCC 6633
  MIC: 0.2 µg/mL (≈ 0.358 µM)
E. coli DY-1
  MIC: 0.025 µg/mL (≈ 0.0448 µM)
Ent. aerogenes IFO 12979
  MIC: 0.025 µg/mL (≈ 0.0448 µM)
Ent. cloacae IFO 13535
  MIC: 0.1 µg/mL (≈ 0.179 µM)
E. coli No. 29
  MIC: 0.025 µg/mL (≈ 0.0448 µM)
Staph. aureus ATCC 6538P
  MIC: 0.78 µg/mL (≈ 1.4 µM)
Prov. stuartii IFO 12930
  MIC: 0.012 µg/mL (≈ 0.0215 µM)
K. pneumoniae NCTC 9632
  MIC: 0.05 µg/mL (≈ 0.0895 µM)
Staph. aureus C-5216
  MIC: 1.56 µg/mL (≈ 2.79 µM)
[2]
  MIC: 0.2 µg/mL (≈ 0.358 µM)
E. coli NIHJ JC-2
  MIC: 0.025 µg/mL (≈ 0.0448 µM)
[3]
  MIC: 1.56 µg/mL (≈ 2.79 µM)
Staph. aureus C-5113
  MIC: 1.56 µg/mL (≈ 2.79 µM)
Ps. aeruginosa DY-2
  MIC: 3.13 µg/mL (≈ 5.6 µM)
[4]
  MIC: 0.05 µg/mL (≈ 0.0895 µM)

## CO/N=C(\C(=O)N[C@@H]1C(=O)N2C(C(=O)[O-])=C(C[n+]3ccn4c(SCCO)ccc4c3)CS[C@H]12)c1nc(N)sc1Cl [Ex. 52, 7-β-[(Z)-2-(2-amino-5-chlorothiazol-4-yl)-2-methoxyiminoacetamido]-3-[6-(2-hydroxyethylthio)pyrrolo[1,2-a]-pyrazinium-2-yl]methyl-3-cephem-4-carboxylate]
P. vulgaris NCTC 8313
  MIC: 0.012 µg/mL (≈ 0.0192 µM)
Staph. aureus C-57
  MIC: 6.25 µg/mL (≈ 10 µM)
M. morganii DY-1
  MIC: 0.2 µg/mL (≈ 0.32 µM)
Staph. aureus Smith
  MIC: 1.56 µg/mL (≈ 2.5 µM)
[1]
  MIC: 0.1 µg/mL (≈ 0.16 µM)
B. subtilis ATCC 6633
  MIC: 0.1 µg/mL (≈ 0.16 µM)
E. coli DY-1
  MIC: 0.025 µg/mL (≈ 0.0401 µM)
Ent. aerogenes IFO 12979
  MIC: 0.1 µg/mL (≈ 0.16 µM)
Ent. cloacae IFO 13535
  MIC: 0.78 µg/mL (≈ 1.25 µM)
E. coli No. 29
  MIC: 0.1 µg/mL (≈ 0.16 µM)
Staph. aureus ATCC 6538P
  MIC: 0.2 µg/mL (≈ 0.32 µM)
Prov. stuartii IFO 12930
  MIC: 0.025 µg/mL (≈ 0.0401 µM)
K. pneumoniae NCTC 9632
  MIC: 0.1 µg/mL (≈ 0.16 µM)
Staph. aureus C-5216
  MIC: 0.78 µg/mL (≈ 1.25 µM)
[2]
  MIC: 1.56 µg/mL (≈ 2.5 µM)
E. coli NIHJ JC-2
  MIC: 0.2 µg/mL (≈ 0.32 µM)
[3]
  MIC: 1.56 µg/mL (≈ 2.5 µM)
Staph. aureus C-5113
  MIC: 1.56 µg/mL (≈ 2.5 µM)
Ps. aeruginosa DY-2
  MIC: 12.5 µg/mL (≈ 20 µM)
[4]
  MIC: 0.2 µg/mL (≈ 0.32 µM)

## CO/N=C(\C(=O)N[C@@H]1C(=O)N2C(C(=O)[O-])=C(C[n+]3ccn4c(SCCO)ccc4c3)CS[C@H]12)c1nsc(N)n1 [Ex. 53, 7-β-[(Z)-2-(5-amino-1,2,4-thiadiazol-3-yl)-2-methoxyiminoacetamido]-3-[6-(2-hydroxyethylthio)pyrrolo[1,2-a]-pyrazinium-2-yl]methyl-3-cephem-4-carboxylate]
P. vulgaris NCTC 8313
  MIC: 0.1 µg/mL (≈ 0.169 µM)
Staph. aureus C-57
  MIC: 25 µg/mL (≈ 42.3 µM)
M. morganii DY-1
  MIC: 0.05 µg/mL (≈ 0.0846 µM)
Staph. aureus Smith
  MIC: 3.13 µg/mL (≈ 5.3 µM)
[1]
  MIC: 3.39 µg/mL (≈ 5.74 µM)
B. subtilis ATCC 6633
  MIC: 0.2 µg/mL (≈ 0.339 µM)
E. coli DY-1
  MIC: 0.025 µg/mL (≈ 0.0423 µM)
Ent. aerogenes IFO 12979
  MIC: 0.025 µg/mL (≈ 0.0423 µM)
Ent. cloacae IFO 13535
  MIC: 0.1 µg/mL (≈ 0.169 µM)
E. coli No. 29
  MIC: 0.05 µg/mL (≈ 0.0846 µM)
Staph. aureus ATCC 6538P
  MIC: 0.78 µg/mL (≈ 1.32 µM)
Prov. stuartii IFO 12930
  MIC: 0.025 µg/mL (≈ 0.0423 µM)
K. pneumoniae NCTC 9632
  MIC: 0.025 µg/mL (≈ 0.0423 µM)
Staph. aureus C-5216
  MIC: 3.13 µg/mL (≈ 5.3 µM)
[2]
  MIC: 0.78 µg/mL (≈ 1.32 µM)
E. coli NIHJ JC-2
  MIC: 0.025 µg/mL (≈ 0.0423 µM)
[3]
  MIC: 0.78 µg/mL (≈ 1.32 µM)
Staph. aureus C-5113
  MIC: 3.13 µg/mL (≈ 5.3 µM)
Ps. aeruginosa DY-2
  MIC: 6.25 µg/mL (≈ 10.6 µM)
[4]
  MIC: 0.05 µg/mL (≈ 0.0846 µM)
